pIC50: −log10 of the molar value.
Columns and labels:
Ames test (mutagenicity) = assay: Ames test (mutagenicity)
Excerpt: (§1) Another problem posed consisted in obtaining products having all the advantages described above without the disadvantages frequently encountered during the study of products of the chalcone family. These disadvantages are (i) the problems of cardiac toxicity, which can be evaluated by measuring the inhibition of Herg receptors, (ii) finally, and to a lesser degree, the problems of mutagenicity, which can be evaluated in particular in the Ames test.

Tubulin = target: T1, Tubulin (Sus scrofa, UniProt P02550+P02554); assay: Inhibition of polymerization of tubulin (turbidimetry); type: biochemical; settings: pig brain tubulin 10 μM, turbidity at 350 nm, 37° C.
T1 construct: Tubulin is purified from pig brains according to published methods; from tissue; host or cells: pig brain
T1 sequence (P02550 whole entry): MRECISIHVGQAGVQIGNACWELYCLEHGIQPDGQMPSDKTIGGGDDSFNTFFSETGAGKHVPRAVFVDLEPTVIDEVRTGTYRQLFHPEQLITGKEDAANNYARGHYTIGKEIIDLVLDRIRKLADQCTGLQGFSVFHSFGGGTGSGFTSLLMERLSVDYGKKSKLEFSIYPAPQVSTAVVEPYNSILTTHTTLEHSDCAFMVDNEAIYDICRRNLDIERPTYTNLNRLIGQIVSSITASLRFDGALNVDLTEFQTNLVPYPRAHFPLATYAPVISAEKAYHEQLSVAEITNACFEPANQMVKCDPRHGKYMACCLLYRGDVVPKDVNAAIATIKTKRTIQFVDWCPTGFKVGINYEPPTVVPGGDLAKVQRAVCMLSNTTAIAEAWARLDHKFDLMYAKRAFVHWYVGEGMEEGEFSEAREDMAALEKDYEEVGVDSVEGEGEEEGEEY
T1 sequence (P02554 whole entry): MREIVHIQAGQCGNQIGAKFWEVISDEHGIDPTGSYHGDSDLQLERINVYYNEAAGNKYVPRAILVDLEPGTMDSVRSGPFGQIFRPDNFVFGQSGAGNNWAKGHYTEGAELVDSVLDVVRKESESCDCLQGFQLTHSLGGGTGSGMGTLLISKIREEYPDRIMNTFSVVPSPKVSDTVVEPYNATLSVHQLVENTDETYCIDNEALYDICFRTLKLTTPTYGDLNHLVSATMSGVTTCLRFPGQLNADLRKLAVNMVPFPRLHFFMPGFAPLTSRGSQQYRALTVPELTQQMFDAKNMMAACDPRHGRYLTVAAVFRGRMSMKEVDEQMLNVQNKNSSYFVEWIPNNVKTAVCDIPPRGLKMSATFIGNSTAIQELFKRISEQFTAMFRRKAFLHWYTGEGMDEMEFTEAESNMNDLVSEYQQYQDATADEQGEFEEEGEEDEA
Description: Tubulin is purified from pig brains according to published methods (Shelanski et al., Proc. Natl. Acad. Sci. USA, 70, 765-768. Weingarten et al., 1975, Proc. Natl. Acad. Sci. USA, 72, 1858-1862). Briefly, the brains are ground and centrifuged in an extraction buffer. The tubulin contained in the supernatant of the extract undergoes two successive cycles of polymerization at 37° C. and depolymerization at 4° C., before being separated from the MAPs (Microtubule Associated Proteins) by chromatography on a phosphocellulose P11 column (Whatman). The tubulin thus isolated is more than 95% pure. It is stored in a buffer called RB/2 30% glycerol whose composition is 50 mM MES-NaOH [2-(N-morpholino)ethanesulfonic acid], pH 6.8; 0.25 mM MgCl2; 0.5 mM EGTA; 30% glycerol (v/v), 0.2 mM GTP (guanosine-5′-triphosphate).
The polymerization of tubulin to microtubules is monitored by turbidimetry as follows: the tubulin is adjusted to a concentration of 10 μM (1 mg/ml) in RB/2 30% glycerol buffer to which 1 mM GTP and 6 mM MgCl2 are added. The polymerization is triggered by an increase in temperature from 6° C. to 37° C. in a cuvette having an optical path length of 1 cm, placed in a UVIKON 931 spectrophotometer (Kontron) equipped with a thermostated cuvette holder. The increase in the turbidity of the solution is monitored at 350 nm.
The compounds of this invention are dissolved at 10 mM in DMSO and added at variable concentrations (0.5 to 10 μM) to the tubulin solution before polymerization. The IC50 is defined as the concentration of compound which inhibits the rate of polymerization by 50%.

HDMEC cells = assay: Inhibition of proliferation of endothelial cells HDMEC ([14C]thymidine incorporation); type: cell-based; settings: Homo sapiens, Endothelial cell, 48 hours
Description: The evaluation of the detachment of the endothelial cells in vitro is determined in the following manner. HDMEC cells (Human Dermal Microvascular Endothelial Cells, Promocell, c-122102) are cultured in an ECGM-MV medium which contains 5% foetal calf serum, growth factors (EGF 10 ng/ml, hydrocortisone 1 μg/ml, 0.4% growth supplement with heparin) and antibiotics (amphoteracin 50 ng/ml, gentamycin 50 μg/ml). For the detachment test, the HDMECs are inoculated at 5 000 cells in clear-bottomed 96-well plates (Costar) precoated with fibronectin (10 μg/ml) or vitronectin (1 μg/ml) or gelatin. Twenty-four hours later, the culture medium is replaced with ECGM-MV 0.1% BSA medium containing the products indicated. […] The fluorescence of the cells which remain attached to the substratum of the well is counted using a fluorimeter, Spectrafluor Plus (Tecan excitation 485 nm, and emission 535 nm). The data are the mean of six different samples and are expressed as the percentage of the control (untreated cells).
The proliferation of HeLa or HDMEC cells is evaluated by measuring the incorporation of [^14C]thymidine in the following manner. […] [^14C]Thymidine (0.1 μCi/well) and the products to be evaluated are then added. […] 48 hours after incubation at 37° C., the radioactivity incorporated into the cells is measured by counting the plate in a TR1-LUX counter (Wallac). […]

HeLa cells = assay: Inhibition of proliferation of HeLa tumor cells ([14C]thymidine incorporation); type: cell-based; settings: Homo sapiens, 48 hours, read-out: Inhibition of cell proliferation IC50, HeLa
Description: The proliferation of HeLa or HDMEC cells is evaluated by measuring the incorporation of [^14C]thymidine in the following manner. The HeLa cells (epithelial tumor cells of human origin) are cultured in a DMEM medium (Gibco) which contains 10% of foetal calf serum and antibiotics (1% penicillin, 1% streptomycin). To carry out the proliferation test, the cells are inoculated into 96-well Cytostar microplates (Amersham), at the rate of 5000 cells per well. [^14C]Thymidine (0.1 μCi/well) and the products to be evaluated are then added. Variable concentrations of products of up to 10 μM are used; the DMSO (solvent used to solubilize the products) should not exceed 0.5% in the medium. 48 hours after incubation at 37° C., the radioactivity incorporated into the cells is measured by counting the plate in a TR1-LUX counter (Wallac). The IC50 is defined as the concentration of compound which reduces by 50% the radioactivity compared with an untreated control.

Herg receptors = Herg receptors (Homo sapiens, UniProt Q12809); assay: Inhibition of Herg receptors (cardiac toxicity)
Herg receptors, sequence (Q12809 whole entry): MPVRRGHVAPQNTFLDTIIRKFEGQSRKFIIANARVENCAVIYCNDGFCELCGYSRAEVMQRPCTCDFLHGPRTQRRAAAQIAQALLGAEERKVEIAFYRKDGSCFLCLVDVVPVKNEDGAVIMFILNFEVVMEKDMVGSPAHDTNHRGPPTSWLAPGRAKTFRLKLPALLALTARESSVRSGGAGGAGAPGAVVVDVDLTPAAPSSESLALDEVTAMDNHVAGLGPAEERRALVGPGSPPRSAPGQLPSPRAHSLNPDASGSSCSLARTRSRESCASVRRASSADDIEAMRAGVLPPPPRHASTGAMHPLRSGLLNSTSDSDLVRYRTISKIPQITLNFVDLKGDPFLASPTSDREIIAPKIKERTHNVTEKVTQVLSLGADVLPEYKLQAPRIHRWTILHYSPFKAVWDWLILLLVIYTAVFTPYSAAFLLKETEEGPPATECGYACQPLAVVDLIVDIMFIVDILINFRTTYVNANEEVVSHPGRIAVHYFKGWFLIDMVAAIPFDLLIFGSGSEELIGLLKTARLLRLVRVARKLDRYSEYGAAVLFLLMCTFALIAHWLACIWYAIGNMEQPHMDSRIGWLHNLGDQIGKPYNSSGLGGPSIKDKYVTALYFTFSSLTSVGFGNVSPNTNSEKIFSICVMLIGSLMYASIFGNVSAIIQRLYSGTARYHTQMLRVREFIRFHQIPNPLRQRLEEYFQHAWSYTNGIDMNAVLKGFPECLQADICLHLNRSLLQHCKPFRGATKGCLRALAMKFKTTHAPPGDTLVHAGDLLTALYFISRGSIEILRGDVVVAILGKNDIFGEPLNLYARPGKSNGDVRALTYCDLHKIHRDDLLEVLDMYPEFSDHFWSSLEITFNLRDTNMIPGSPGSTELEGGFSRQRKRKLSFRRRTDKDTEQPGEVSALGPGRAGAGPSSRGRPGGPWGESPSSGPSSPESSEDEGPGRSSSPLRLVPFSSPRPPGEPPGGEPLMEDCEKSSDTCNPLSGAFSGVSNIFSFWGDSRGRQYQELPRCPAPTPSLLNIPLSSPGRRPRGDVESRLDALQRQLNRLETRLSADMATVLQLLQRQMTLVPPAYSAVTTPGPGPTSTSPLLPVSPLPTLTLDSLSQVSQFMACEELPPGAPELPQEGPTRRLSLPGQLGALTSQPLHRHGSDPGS
Excerpt: as §1

[1] = tested on: C51 murine adenocarcinoma (colon tumor); assay: Evaluation of tumor necrosis in vivo; settings: 35 mg/kg, intravenous injection, 24 hours after treatment, female BALB/c mice; listed as EXAMPLE 2
Excerpt: Mice are bred either by IFFA-CREDO (Domaine des Oncins, 69210 L'Arbresle, France) from a breed obtained by Jackson Laboratories, Bar Harbor, Me., USA, or alternatively by Charles River France (76410 St Aubin les Elbeuf, France) from a breed obtained by Charles River, USA. The mice initially weigh more than 18 g at the start of the trial. They have free access to food (UAR reference 113, Villemoisson, 91160 Epinay sur Orge, France) and to water.
The tumors used are currently transplanted in our laboratories. All these tumors are at the Frederick Cancer Research Facility (Frederick, Md., USA) at the repository of frozen tumors of the National Cancer Institute (NCI), or at the American Type Culture Collection (ATCC, Rockville, Md., USA).
The techniques for tumor transplantation, chemotherapy and data analysis have been presented in detail (Corbett et al., 1982a; Corbett et al., 1982b).
To summarize, the animals necessary for one experiment are assembled and bilaterally implanted on day 0 (zero).
The growth of solid tumors develops freely up to the desired size. […]
The samples are then treated, cut into sections, stained with haematoxylin, eosin and saffron yellow, and are then examined […]. The tumor necrosis (necrosis±degeneration) is evaluated microscopically using a scale of extent from 0 to 5: […]
The necrosis due to the experiment was evaluated on an untreated control. […]

## COc1cc(C(=O)/C(C)=C/c2ccc3c(ccn3CCO)c2)cc(OC)c1OC [Example 1, E-2-Methyl-3-[1-(2-hydroxyethyl)indol-5-yl]-1-(3,4,5-trimethoxyphenyl)propenone]
Ames test (mutagenicity)
  Ames: negative
Tubulin
  pIC50: 6.10
HDMEC cells
  pIC50: 8.48 to 9.01
HeLa cells
  pIC50: 8.43 to 8.46
other
  melting point: 119 °C

## COc1cc(C(=O)/C(C)=C/c2ccc3c(ccn3CCO)c2)cc2c1OCO2 [Example 2, E-2-Methyl-3-[1-(2-hydroxyethyl)indol-5-yl]-1-(3-methoxy-4,5-methylenedioxyphenyl)propenone]
Ames test (mutagenicity)
  Ames: negative
Tubulin
  pIC50: 6.22
HDMEC cells
  pIC50: 9.21 to 9.66
HeLa cells
  pIC50: 8.79 to 8.91
Herg receptors
  pIC50: < 4.52
[1]
  C51 colon Tumor necrosis In vivo (grade, scale 0 to 5): 5 (considerable, >75%)
other
  melting point: 83 °C

## COc1ccc(OC)c(C(=O)/C(C)=C/c2ccc3c(ccn3CCO)c2)c1 [Example 3, E-2-Methyl-3-[1-(2-hydroxyethyl)-1-H-indol-5-yl]-1-(2,5-dimethoxyphenyl)propenone]
Ames test (mutagenicity)
  Ames: negative
Tubulin
  pIC50: 6.08
other
  melting point: 112 °C
